Data published in article PMC11579209, “Population pharmacokinetics and exposure–response relationships of maribavir in transplant recipients with cytomegalovirus infection” (Journal of Pharmacokinetics and Pharmacodynamics, 2024).

Tests used:
[1] = Population pharmacokinetic (PopPK) model (NONMEM), pooled maribavir plasma concentration–time data from phase 1, 2 and 3 studies; assay type: in vivo, human
Protocol: A PopPK model was developed using non-linear mixed effects modeling (NONMEM) (v7.4.3) with pooled maribavir plasma concentration–time data from 667 participants in nine phase 1 studies (n = 182, single or repeated doses of 100, 200 or 400 mg), two phase 2 studies (NCT01611974, EudraCT 2010-024247-32, 400, 800, and 1200 mg BID), and one phase 3 study (SOLSTICE, NCT02931539, 400 mg BID; phase 2 and 3 combined: n = 485). The final PopPK analysis dataset comprised data from individuals who had received at least one dose of maribavir and had at least one quantifiable post-dose concentration. This model was used to describe the time course of maribavir plasma concentrations in healthy volunteers, participants with hepatic or renal impairment, stable renal transplant patients, and hematopoietic cell transplant (HCT) or solid organ transplant (SOT) recipients with CMV infection, including those with refractory CMV infection.
One- (ADVAN2 TRANS2), two- (ADVAN4 TRANS4), and three (ADVAN12 TRANS4)-compartment models with first-order absorption, an absorption lag time, and linear clearance were initially investigated. The NONMEM control stream for the final model can be found in the Supplementary Methods S1 of the Supplementary Material 1. […] Consequently, the effects of co-administration of strong CYP3A4 inhibitors and strong CYP3A4 inducers were considered for inclusion in the base model. The effect of body weight (scaled to 70 kg) on both clearance and volume terms was also considered for inclusion in the base model.
Structural and variance model parameters were estimated for the base model, and inter-individual variability (IIV) was included on all structural parameters. Runs with untransformed data were used to test the residual error models. Plots of weighted residuals were evaluated for homoscedasticity with respect to predictions and time since dose, and the structure of the base model was expanded as necessary to best reflect the characteristic shape of the observations over time. Dose and time dependency were explored for PK model parameters. Parameter estimation was performed using Monte Carlo Importance Sampling Expectation Maximization assisted by Mode a Posteriori, with MU referencing (where THETAs that define typical values of individual parameters, and are associated with random effects, are referenced in a PHI/MU format) to improve the efficiency of computations. The impact of post-dose observations below the lower limit of quantification (BLQ) was assessed in initial models by implementing the M3 method, which maximizes the likelihood for all the data treating BLQ observations as censored. The performance of the final PopPK model was evaluated using a confidence interval prediction-corrected visual predictive check (CI-pcVPC) method. In addition, the percentage of observations outside the overall 5th and 95th percentiles of the predicted data was calculated.
Strong CYP3A4 inhibitors and inducers, as well as weight, were included in the base model.
Continuous covariates were obtained from observations on the first day of dosing, or at screening if this value was not available. […] Categorical covariates were tested and incorporated in the model as a series of index variables taking on values of zero or one.
The full model with backwards deletion approach was used for covariate modeling, with all covariate parameter relationships of interest entered into the model simultaneously. Highly correlated covariates were tested one at a time to avoid confounding in the estimation of covariate effects. A backwards deletion was carried out at the p = 0.001 significance level. The order of removal was based on the relative standard error and 95% confidence interval (CI) of the parameter estimate.

[2] = set-up: species or system human; conditions: in vivo
Protocol: The exposure–response analyses for maribavir were based on data collected from transplant recipients with CMV infections that were refractory to treatment with ganciclovir, valganciclovir, foscarnet, or cidofovir in the phase 3 SOLSTICE study (ClinicalTrials.gov: NCT02931539). SOLSTICE was a multicenter, open-label, active-controlled study in which patients were randomized 2:1 to receive maribavir 400 mg BID or IAT for 8 weeks, with 12 weeks of follow-up. The primary endpoint was confirmed CMV clearance at the end of week 8, and the key secondary endpoint was achievement of CMV clearance and symptom control at the end of week 8, maintained through week 16. TE CMV mutation conferring resistance to maribavir was assessed as an exploratory endpoint. Full details of the SOLSTICE study have been published previously.
Posterior Bayes parameters of the final PopPK model were used to derive rich concentration–time profiles for maribavir. Actual dosing history and factors affecting the PK of maribavir (i.e., body weight and time-varying presence of strong CYP3A4 inhibitors or strong CYP3A4 inducers) were considered in the predictions.
Data set preparation, exploration, visualization of the data and exposure-response analyses were performed using R® (version 4.0.5 for efficacy and resistance analyses; version 4.0.2 for safety analysis) with comprehensive R® archive network (CRAN) and Certara Strategic Consulting (CSC) package. Firth correction on logistic regression was done based on library “logistf”. Logistic regressions with log-linear exposure effect or Emax exposure effect were performed using NONMEM Version VII (version 7.4).
Descriptive statistics were derived for TEAEs, TE serious AEs (SAEs), and TEAEs of special interest during the 8-week treatment phase. Based on the descriptive statistics results, key TEAEs were selected for a formal exposure–response analysis, and exposure parameters of maribavir (AUCday, Cmax.day, Cavg, AUCss, and Cmax.ss) derived from the final PopPK models were merged with retained TEAE. […]

[3] = set-up: method as in PMID 18316526; conditions: concomitant ketoconazole; cited from earlier work
[4] = set-up: method as in PMID 38009271; conditions: concurrent rifampin; cited from earlier work
[5] = set-up: method as in PMID 31532960, PMID 30329038; conditions: doses up to 1200 mg BID, cited from earlier work
[6] = reference: 70-kg individual without CMV, 800 mg

CC(C)Nc1nc2cc(Cl)c(Cl)cc2n1[C@H]1O[C@@H](CO)[C@H](O)[C@@H]1O [maribavir]
CL/F higher in the presence of strong CYP3A4 inducers ([1]; final PopPK model): 2.24 fold | CL/F lower in the presence of strong CYP3A4 inhibitors ([1]; final PopPK model): 30% | CL/F ~ CYP3A strong inducers, covariate estimate ([1]; final PopPK model): 2.24 | CL/F ~ CYP3A strong inhibitors, covariate estimate ([1]; final PopPK model): 0.700 | CL/F ~ transplant patients with CMV, covariate estimate ([1]; final PopPK model): 0.756 | CL/F lower for transplant recipients with CMV infection than for all other individuals ([1]; human, in vivo): 24% | Ka (first-order absorption), PopPK estimate [1, 6]: 0.336 h^–1 | Lag-time, PopPK estimate [1, 6]: 0.271 h | Q/F (inter-compartment clearance), PopPK estimate [1, 6]: 0.908 L/h | Vc/F (apparent volume of central compartment), PopPK estimate [1, 6]: 18.6 L | Vp/F (apparent volume of peripheral compartment), PopPK estimate [1, 6]: 8.66 L | CL/F (apparent total clearance), PopPK estimate ([1]; reference: 70-kg individual without CMV, 800 mg maribavir, no CYP3A strong inhibitors or inducers): 3.77 L/h | Relationship between probability of TE SAE and maribavir AUCday, AUCss, Cmax.ss, and Cavg ([2]; human): Statistically significant positive relationships | Relationship between probability of fatigue and maribavir exposure PK metrics [2]: Statistically significant positive relationships | Relationship between probability of taste disturbance and Cavg of maribavir [2]: statistically significant negative relationship | Increase in maribavir AUC0-∞ [3]: 53% | Increase in maribavir Cmax [3]: 10% | Increase in maribavir clearance [4]: 2.5 fold | Reduction in maribavir AUC [4]: 60% | Reduction in maribavir half-life [4]: 30% | Dose-related myelosuppression [5]: no evidence of dose-related myelosuppression | Incidence of dysgeusia across doses ([5]; transplant recipients with refractory CMV infection): similar
